In patent US20250282749A1 (Tango Therapeutics, Inc., priority 2022, published 2025):

Key:
Assay type in all cases: cell-based
[1] = system: PRMT5 (SDMA) in HAP1 MTAP-deleted cell line; experiment: SDMA in-cell western assay, HAP1 MTAP-deleted cell line; settings: for IC50 / IC90: Homo sapiens, SDMA in-cell western, HAP1 MTAP-deleted (MTAP-null) cell line; for Hap1 MTAP intact/deleted ratio: ratio of SDMA in-cell western IC50 in HAP1 MTAP-intact to IC50 in HAP1 MTAP-deleted cell line
Text: (§1) HAP1 MTAP-intact is a cell line in which endogenous levels of MTAP are expressed, and HAP1 MTAP-deleted is an MTAP-null cell line.

[2] = system: HAP1 MTAP-deleted cell line; experiment: viability assay for the MTAP-deleted cell line; settings: Homo sapiens
[3] = system: PRMT5 (SDMA) in HAP1 MTAP-intact cell line; experiment: SDMA in-cell western assay, HAP1 MTAP-intact cell line; settings: Homo sapiens, HAP1 MTAP-intact cell line (endogenous MTAP), read-out: Hap 1 MTAP intact IC50
Text: as §1

IC50 [1] [nM]	IC90 [1] [nM]	IC50 [3] [nM]	SMILES	Hap1 MTAP intact/deleted ratio [1]	IC50 [2] [nM]
5 to 50	> 125	> 50	C[C@@H]1CN(C(=O)C(=O)Nc2cncc3cn[nH]c23)[C@@H](c2ccccc2)CN1C(=O)C1(C)CC1 [Compound 91, 2-((2S,5R)-5-methyl-4-(1-methylcyclopropanecarbonyl)-2-phenylpiperazin-1-yl)-2-oxo-N-(1H-pyrazolo[4,3-c]pyridin-7-yl)acetamide]	B (an IC50 ratio greater than or equal to 15 fold but lower than 30 fold)	< 100
5 to 50	> 125	> 50	COc1ncc(NC(=O)C(=O)N2C[C@@H](C)N(C(=O)C(C)C)C[C@@H]2c2cccc(N3CCN(C)CC3)c2)cc1C(N)=O [Compound 10, 5-(2-((2S,5R)-4-isobutyryl-5-methyl-2-(3-(4-methylpiperazin-1-yl)phenyl)piperazin-1-yl)-2-oxoacetamido)-2-methoxynicotinamide]	C (an IC50 ratio of less than 15 fold)	100 to 1000
< 5	< 75	< 5	CCc1cc(NC(=O)C(=O)N2C[C@@H](C)N(C(=O)C(C)(C)C)C[C@@H]2c2cccc(N3CCN(C)CC3)c2)cnc1N [Compound 110, N-(6-amino-5-ethylpyridin-3-yl)-2-((2S,5R)-5-methyl-2-(3-(4-methylpiperazin-1-yl)phenyl)-4-pivaloylpiperazin-1-yl)-2-oxoacetamide]	C (an IC50 ratio of less than 15 fold)	< 100
5 to 50	< 75	> 50	CC(=O)N1C[C@H](c2ccccc2)N(C(=O)C(=O)Nc2cnc(N)c3cn[nH]c23)C[C@H]1C [Compound 52]	B (an IC50 ratio greater than or equal to 15 fold but lower than 30 fold)	< 100
< 5	75 to 125	5 to 50	Cc1cc(NC(=O)C(=O)N2C[C@@H](C)N(C(=O)C3(C(F)(F)F)CC3)C[C@@H]2c2cccs2)cnc1N [Compound 111, N-(6-amino-5-methyl-3-pyridyl)-2-[(2R,5R)-5-methyl-2-(2-thienyl)-4-[1-(trifluoromethyl)cyclopropanecarbonyl]piperazin-1-yl]-2-oxo-acetamide]	C (an IC50 ratio of less than 15 fold)	< 100
> 50	> 125	> 50	CC(C)C(=O)N1C[C@@H](c2ccc(F)c(F)c2)N(C(=O)C(=O)Nc2cnc(N)c(C3CC3)c2)C[C@H]1C [Compound 160, N-(6-amino-5-cyclopropylpyridin-3-yl)-2-((5R)-2-(3,4-difluorophenyl)-4-isobutyryl-5-methylpiperazin-1-yl)-2-oxoacetamide]	C (an IC50 ratio of less than 15 fold)	> 1000
5 to 50	> 125	> 50	Cc1cc(NC(=O)C(=O)N2C[C@@H](C)N(C(=O)C3(C)CC3)C[C@@H]2c2ccccc2)cnc1N [Compound 143, N-(6-amino-5-methylpyridin-3-yl)-2-((2S,5R)-5-methyl-4-(1-methylcyclopropanecarbonyl)-2-phenylpiperazin-1-yl)-2-oxoacetamide]	C (an IC50 ratio of less than 15 fold)	< 100
5 to 50	75 to 125	> 50	Cc1cc(NC(=O)C(=O)N2C[C@@H](C)N(C(=O)C(C)C)C[C@@H]2c2ccc(F)c(Cl)c2)cnc1N [Compound 74, N-(6-amino-5-methylpyridin-3-yl)-2-((2S,5R)-2-(3-chloro-4-fluorophenyl)-4-isobutyryl-5-methylpiperazin-1-yl)-2-oxoacetamide]	A (an IC50 ratio greater than or equal to 30 fold)	100 to 1000
< 5	< 75	5 to 50	Cc1cc(NC(=O)C(=O)N2C[C@@H](C)N(C(=O)C3(C)CC3)C[C@@H]2c2cccs2)cnc1N (single isomer, unassigned) [Compound 53]	C (an IC50 ratio of less than 15 fold)	< 100
5 to 50	> 125	> 50	Cc1cc(NC(=O)C(=O)N2CCN(C(=O)C3(C(F)(F)F)CC3)[C@H](C)[C@H]2c2ccc(F)c(F)c2)cnc1N [Compound 66]	A (an IC50 ratio greater than or equal to 30 fold)	100 to 1000
5 to 50	> 125	> 50	Cc1cc(NC(=O)C(=O)N2C[C@@H](C)N(C(=O)C3(C(F)(F)F)CC3)C[C@@H]2c2ccsc2)cnc1N [Compound 138, N-(6-amino-5-methyl-3-pyridyl)-2-[(2S,5R)-5-methyl-2-(3-thienyl)-4-[1-(trifluoromethyl)cyclopropanecarbonyl]piperazin-1-yl]-2-oxo-acetamide]	A (an IC50 ratio greater than or equal to 30 fold)	< 100
5 to 50	75 to 125	> 50	CCc1cc(NC(=O)C(=O)N2C[C@@H](C)N(C(=O)C(C)C)C[C@@H]2c2ccc(C)cc2)cnc1N [Compound 71, N-(6-amino-5-ethylpyridin-3-yl)-2-((2S,5R)-4-isobutyryl-5-methyl-2-(p-tolyl)piperazin-1-yl)-2-oxoacetamide]	B (an IC50 ratio greater than or equal to 15 fold but lower than 30 fold)	< 100
< 5	< 75	> 50	CCc1cc(NC(=O)C(=O)N2C[C@@H](C)N(C(=O)C(C)(C)CN(C)C)C[C@@H]2c2ccccc2)cnc1N [Compound 37]	A (an IC50 ratio greater than or equal to 30 fold)	< 100
5 to 50	75 to 125	> 50	C[C@@H]1CN(C(=O)C(=O)Nc2cnc(N)c(C3CC3)c2)[C@@H](c2ccc(F)c(F)c2)CN1C(=O)C1(C(F)(F)F)CC1 [Compound 22]	B (an IC50 ratio greater than or equal to 15 fold but lower than 30 fold)	< 100
< 5	< 75	5 to 50	CCc1cc(NC(=O)C(=O)N2C[C@@H](C)N(C(=O)C3(C)CC3)C[C@@H]2c2ccc(F)cc2)cnc1N [Compound 60, N-(6-amino-5-ethylpyridin-3-yl)-2-((2S,5R)-2-(4-fluorophenyl)-5-methyl-4-(1-methylcyclopropanecarbonyl)piperazin-1-yl)-2-oxoacetamide]	C (an IC50 ratio of less than 15 fold)	< 100
< 5	< 75	> 50	C[C@@H]1CN(C(=O)C(=O)Nc2cnc(N)c3cn[nH]c23)[C@@H](c2cccc(Cl)c2)CN1C [Compound 18]	A (an IC50 ratio greater than or equal to 30 fold)	< 100
5 to 50	75 to 125	> 50	Cc1cc(NC(=O)C(=O)N2C[C@@H](C)N(C(=O)C(C)(C)N(C)C)C[C@@H]2c2ccccc2)cnc1N [Compound 28]	B (an IC50 ratio greater than or equal to 15 fold but lower than 30 fold)	< 100
